The values that follow are results of earlier work, collected in patent publication US7842280B2, “Flexibly labeling peptides” (Case Western Reserve University, priority 2006, dated 2010).

For the series the following is noted: Gd^3+-DOTA used in clinical MRI studies; comparison value; cited from earlier work.

Consider `O=C([O-])CN1CCN(CC(=O)[O-])CCN(CC(=O)[O-])CCN(CC(=O)[O-])CC1.[Gd+3]` [Gd^3+-DOTA], for which the relaxivity was 3.83 m mM^−1 sec^−1.
